In patent US20040092547A1, “Alkyl-[4-(difluorophenyl)-oxazol-5-yl]-triazolo-pyridines” (Pfizer Inc, priority 2002, published 2004) one finds melting point data, which are given here for one compound.

The term melting point denotes the temperature, or range, at which the solid turns liquid. In the case of `CC(C)c1nnc2ccc(-c3ocnc3-c3c(F)cccc3F)cn12` [Example 1, 6-[4-(2,6-Difluoro-phenyl)-oxazol-5-yl]-3-isopropyl-[1,2,4]triazolo[4,3-a]pyridine], the melting point was in the range of 175.7 to 176.2 °C.
